Assay results published in patent publication US20060160784A1, “Method for treating neurologic diseases” (priority 2005, published 2006).
“And” between values parts separate entries of the source, which are not always exact repeats. Equal values may be shown once.

System: G93A transgenic mice
Assay: Survival of G93A murine ALS model mice treated with MGd from symptom onset
Assay type: in vivo
Settings: for survival interval (survival data used for plot B), individual animals: one value per mouse, unit days
From the text: Transgenic mice which overexpress the G93A human Cu, Zn superoxide dismutase (SOD 1) mutant develop motor paralysis similar to amyotrophic lateral sclerosis (ALS) in humans. At 90-100 days of age, these mice develop hindlimb weakness which rapidly progresses to total body paralysis within 2-3 weeks. Such trangenic mice were used to evaluate the survival and neuroprotective action of MGd with G93A transgenic mice. In particular, the purpose of this study was to test the effect of MGd (administered at a loading dose of 5 mg/kg and a maintenance dose of 2.5 mg/kg/day i.p. thereafter).
Studies involved the use of G93A overexpressing mice purchased directly from JAX Labs. Due to the high variability in age of onset (of motor neuron disease or MND) and total survival, a mouse colony was bred using the JAX Labs protocols. […] Therefore, littermate males were chosen to sire subsequent offspring and used to produce 10-12 litters of age-matched mice for drug studies. Typically 50-60 transgenic mice were obtained from 10-12 litters and, within these groups, the variability in age of onset and survival was quite low.
The procedure used involved monitoring the transgenic mice from several litters for onset of symptoms of motor neuron degeneration. At symptom onset (muscle weakness), mice were randomly assigned sequentially to either Control (no treatment) or Treatment (MGd-treated) groups. Mice were sacrificed when moribund (unable to assume upright posture), as required by animal welfare protocol. Motexafin gadolinium formulated at 2 mM (2.3 mg/ml) in 5% aqueous mannitol was used for this study and the study group involved 10-11 animals in each group, 21 animals total.
At the onset of symptoms MGd was administered via i.p injection at a loading dose of 5 mg/kg and a maintenance dose of 2.5 mg/kg/day i.p injection. was administered thereafter.
Transgenic mice which overexpress the G93A human Cu, Zn superoxide dismutase (SOD1) mutant develop motor paralysis similar to amyotrophic lateral sclerosis (ALS) in humans. At 90-100 days of age, these mice develop hindlimb weakness which rapidly progresses to total body paralysis within 2-3 weeks. Such trangenic mice were used to evaluate the survival and neuroprotective action of MGd with G93A transgenic mice. In particular, the purpose of this study was to test the effect of MGd (administered at a dose of 1 mg/kg/day i.p.).
The procedure used involved monitoring the transgenic mice from several litters for onset of symptoms of motor neuron degeneration. At symptom onset (muscle weakness), mice were randomly assigned sequentially to either Control (no treatment) or Treatment (MGd-treated) groups. Mice were sacrificed when moribund (unable to assume upright posture), as required by animal welfare protocol. Motexafin gadolinium formulated at 2 mM (2.3 mg/ml) in 5% aqueous mannitol was used for this study and the study group involved 9 animals in each group, 18 animals total.
At the onset of symptoms MGd was administered via i.p injection at a dose of 1 mg/kg/day.
Transgenic mice which overexpress the G93A human Cu, Zn superoxide dismutase (SOD 1) mutant develop motor paralysis similar to amyotrophic lateral sclerosis (ALS) in humans. At 90-100 days of age, these mice develop hindlimb weakness which rapidly progresses to total body paralysis within 2-3 weeks. Such trangenic mice were used to evaluate the survival and neuroprotective action of MGd with G93A transgenic mice. In particular, the purpose of this study was to test the effect of MGd (administered at a dose of 2.5 mg/kg/q.2d. and 2.5 mg/kg/q.4d. i.p.).
The procedure used involved monitoring the transgenic mice from several litters for onset of symptoms of motor neuron degeneration. At symptom onset (muscle weakness), mice were randomly assigned sequentially to either Control (no treatment) or Treatment (MGd-treated) groups. Mice were sacrificed when moribund (unable to assume upright posture), as required by animal welfare protocol. […]

## CC(=O)[O-].CC(=O)[O-].CCc1c(CC)c2cc3nc(cnc4cc(OCCOCCOCCOC)c(OCCOCCOCCOC)cc4ncc4nc(cc1[n-]2)C(CCCO)=C4C)C(C)=C3CCCO.O.[Gd+3] [MGd, Motexafin Gadolinium]
Example 10, loading dose 5 mg/kg i.p., then 2.5 mg/kg/day i.p.
  extension of mean survival over untreated control mice: roughly 2.7 fold
Example 10, loading dose 5 mg/kg i.p., then 2.5 mg/kg/day i.p. from symptom onset
  survival interval (survival data used for plot B), individual animals: 53 days and 54 days and 26 days and 23 days and 21 days and 20 days and 46 days and 55 days and 36 days and 32 days
Example 10, loading dose 5 mg/kg i.p., then 2.5 mg/kg/day i.p., untreated control 13.4 days, p=4×10^−5
  mean survival: 36.6 days
Example 11, 1 mg/kg/day i.p.
  extension of mean survival over untreated control mice: roughly 2.5 fold
Example 11, 1 mg/kg/day i.p. from symptom onset, 1 mg/kg/day
  survival interval (survival data used for plot B), individual animals: 48 days and 41 days (2×) and 35 days (2×) and 49 days and 39 days and 52 days and 54 days
Example 11, 1 mg/kg/day i.p., untreated control 17.2 days, p<1×10^−5
  mean survival: 43.8 days
Example 12, 2.5 mg/kg/q.2d. i.p.
  extension of survival over untreated control mice: roughly 1.3 fold
Example 12, 2.5 mg/kg/q.2d. i.p. from symptom onset, 2.5 mg/kg
  survival interval (survival data used for plot B), individual animals: 20 days and 37 days and 35 days and 30 days and 28 days (2×)
Example 12, 2.5 mg/kg/q.2d. i.p., untreated control 23 days, p=0.069
  mean survival: 30 days
Example 12, 2.5 mg/kg/q.4d. i.p.
  extension of survival over untreated control mice: ~1.4 fold
Example 12, 2.5 mg/kg/q.4d. i.p. from symptom onset, 2.5 mg/kg
  survival interval (survival data used for plot B), individual animals: 30 days and 38 days and 20 days and 35 days and 26 days and 47 days
Example 12, 2.5 mg/kg/q.4d. i.p., untreated control 23 days, p=0.068
  mean survival: 33 days
